Article PMC6669322, “Small Molecule Binding to Alzheimer Risk Factor CD33 Promotes Aβ Phagocytosis” (iScience, 2019)

Tests used:
CD33 wild-type = target: T1, CD33 wild-type (Homo sapiens, UniProt P20138); assay: surface plasmon resonance (SPR), CD33 wild-type V-set domain; format: binding; conditions: P22 as analyte, immobilized CD33 wild-type; 1:1 steady state model
T1 construct: DNA encoding D18 to H143 of human CD33; made in house
Protocol: We next performed surface plasmon resonance (SPR) measurements on P22 binding to CD33 wild-type, and selected mutants, to obtain detailed kinetic data (see Transparent Methods). The CD33 V-set domain has a free cysteine residue (C36), which caused anomalous results in some of our SPR experiments due to disulfide-linked oligomers forming in solution.
Figure 3 P22 Binding to CD33 Wild-Type and Mutants (A) An example of affinity analysis for 1–243 μM (3-fold dilutions) of P22 binding to immobilized CD33^C36S. Data obtained in duplicate using single-cycle analysis and fit to a steady-state binding model to determine the equilibrium binding constant. (B) An example of affinity analysis of P22 binding to immobilized CD33 wild-type (WT) as per example in (A). (C) Sensorgram data for 0.01–9 μM (3-fold dilutions) of CD33^C36S binding to immobilized P22. Data obtained in triplicate using single concentration cycles and fit to a 1:1 binding model for kinetic analysis. (D) Sensorgram data for 0.03–9 μM (3-fold dilutions) CD33 WT binding to immobilized P22. Data obtained in triplicate using single concentration cycles and fit to a bivalent analyte model for kinetic analysis. Measurements in triplicate showing mean ± SD. […] Data presented are representative of three independent experiments performed in quadruplicate for each compound. […]

CD33 Y127A = target: T2, CD33 Y127A (Homo sapiens, UniProt P20138, Y127A); assay: SNAP-tag homogeneous time-resolved fluorescence binding assay, CD33 Y127A; conditions: Y127A variant, in words
T2 construct: human CD33 ORF (NM_001772.3), lacking its signal peptide; expressed in transfected cells; host or cells: HEK293T, transient, pT8-SNAP vector
Protocol: (§1) Figure 3 P22 Binding to CD33 Wild-Type and Mutants (A) An example of affinity analysis for 1–243 μM (3-fold dilutions) of P22 binding to immobilized CD33^C36S. Data obtained in duplicate using single-cycle analysis and fit to a steady-state binding model to determine the equilibrium binding constant. (B) An example of affinity analysis of P22 binding to immobilized CD33 wild-type (WT) as per example in (A). (C) Sensorgram data for 0.01–9 μM (3-fold dilutions) of CD33^C36S binding to immobilized P22. Data obtained in triplicate using single concentration cycles and fit to a 1:1 binding model for kinetic analysis. […]
(§2) We then used our structural data to design mutations of key residues interacting with P22 to assess which interactions were the most important for binding affinity. The residues were mutated into alanine, and the effect of these mutations on P22 binding affinity was assessed using a SNAP-tag homogeneous time-resolved fluorescence binding assay (see Transparent Methods and Figures 3E–3G). […]
(§3) HEK293T cells were cultured in DMEM (ThermoFisher Scientific # 11965092) containing 10% FBS (Hyclone # SH30070.03) and 1% Penicillin-Streptomycin (ThermoFisher Scientific # 15140122) and transfected using Fugene HD (Promega # E2312) in 10 cm plates. […] The cells were counted, centrifuged and resuspended in PBS at a concentration of 1,000 cells/μL and 10 μL were plated into each well. […]

CD33 R119A = CD33 R119A (Homo sapiens, UniProt P20138, R119A); assay: SNAP-tag homogeneous time-resolved fluorescence binding assay, CD33 R119A; parameters: human CD33 ORF (NM_001772.3), lacking its signal peptide; expressed in transfected cells; host or cells: HEK293T, transient, pT8-SNAP vector; conditions: binding affinity, R119A vs WT
Protocol: as §1, §2, §3

Chain of CD33 R119A (P20138 18-364 R119A): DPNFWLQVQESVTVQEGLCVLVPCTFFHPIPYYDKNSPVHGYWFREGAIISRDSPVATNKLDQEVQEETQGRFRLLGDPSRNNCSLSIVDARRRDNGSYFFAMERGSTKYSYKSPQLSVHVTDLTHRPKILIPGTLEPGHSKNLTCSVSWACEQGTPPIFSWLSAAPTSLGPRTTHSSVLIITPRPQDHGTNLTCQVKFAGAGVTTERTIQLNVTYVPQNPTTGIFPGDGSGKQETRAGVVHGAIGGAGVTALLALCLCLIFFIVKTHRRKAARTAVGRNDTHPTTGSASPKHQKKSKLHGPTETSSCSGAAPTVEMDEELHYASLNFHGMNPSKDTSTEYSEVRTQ
T2 sequence (P20138 18-364 Y127A): as the sequence (P20138 18-364 R119A) above, with A102R, Y110A counted along it
T1 sequence (P20138 18-143): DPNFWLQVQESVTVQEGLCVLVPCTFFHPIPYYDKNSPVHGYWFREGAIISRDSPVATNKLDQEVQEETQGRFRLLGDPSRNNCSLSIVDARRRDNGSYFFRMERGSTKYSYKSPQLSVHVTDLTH

Kd (CD33 wild-type): 118 ± 41 µM
specific binding (total binding – binding in presence of 100 μM non-labeled P22) (CD33 Y127A): completely abolished
Fold-decrease compared to WT (CD33 R119A): > 30 fold
Compound: Cc1cc(C(=O)NC[C@@H](O)[C@@H](O)[C@@H]2O[C@@](OC[C@H]3O[C@@H](O[C@H]4[C@H](O)[C@@H](O)[C@H](OCCN)O[C@@H]4CO)[C@H](O)[C@@H](O)[C@H]3O)(C(=O)O)C[C@H](O)[C@H]2NC(=O)Cn2cc(C3CCCCC3)nn2)cc(C)c1O [P22, β-D-Glucopyranoside, 2-aminoethyl O-[N-[2-(4-cyclohexyl-1H-1,2,3-triazol-1-yl)acetyl]-9-deoxy-9-[(4-hydroxy-3,5-dimethylbenzoyl)amino]-α-neuraminosyl] (2→6)-O-β-D-galactopyranosyl-(1→4)-]
